Earlier results, collected in US20160243064A1, “NOVEL ORAL PHARMACEUTICAL COMPOSITIONS OF TREPROSTINIL” (Gavis Pharmaceuticals, priority 2015, published 2016).

Details: free acid, as taught by the cited US patents

oral absolute bioavailability: less than 10%
Structure (SMILES): CCCCC[C@H](O)CC[C@@H]1[C@H]2Cc3cccc(OCC(=O)O)c3C[C@H]2C[C@H]1O [treprostinil]
